The text below walks through data of patent publication US20230241167A1, “Use of Caveolin-1 Scaffolding Domain Peptides for Treating Disease and Disorders” (MUSC Foundation for Research Development, priority 2020, published 2023).

Square brackets hold non-standard residues; d marks the D form. Ends that are not written are not given here. Peptide text beside a SMILES is read from it.

The subject of one test is Ang II-infused mice. The experiment in a line: Angiotensin II-induced congestive heart failure (CHF) model. To be noted: for suppression of AngII-induced fibrosis in the heart (Col I deposition and HSP47 level) / suppression of AngII-induced microvascular leakage in the heart (IgG heavy chain level in the tissue): Western blot; for overall effectiveness of domains in the CHF model (summary of FIGS. 1-7): FIG. 8; for suppression of the effects of AngII on Heart Weight/Body Weight (HW/BW) ratio: young mice (3 months) infused with Ang II two weeks. Format: in vivo. As for the experimental part: FIG. 1 provides an overview of an experiment using Full-Length CSD, 82-89, 88-95, and 94-101 (SEQ ID NO:1, SEQ ID NO:2, SEQ ID NO:3, and SEQ ID NO:4 respectively).
Young mice (3 months old) infused with Ang II or vehicle for two weeks received daily i.p. injections of CSD, the indicated subdomains or scrambled CSD (0.8 μmol/kg). Mice were evaluated by Echocardiography for changes in posterior wall thickness (pWTh), fractional shortening (FS), cardiac output (CO), ejection fraction (EF), and isovolumic relaxation time (IVRT). Significant changes are shown as ***p<0.001 for Sham+Veh vs AngII+Veh. Significant suppression of AngII-induced changes is shown as ^p<0.05, ^^p<0.01, and ^^^p<0.001 for AngII+Veh vs AngII+CSD or AngII+CSD subdomains. The number of mice used in each treatment are shown in the HW/BW data.
Young mice (3 months old) infused with Ang II or vehicle for two weeks received daily i.p. injections of the indicated subdomains of CSD. The results of a typical experiment for Col I and HSP47 (FIG. 4) and for microvascular leakage (FIG. 5) are shown in Western blots (2 to 3 mice per group). The data are quantified below (n=4). Significant changes are shown as *p<0.05 and **p<0.01 for Sham+Veh vs Ang II+Veh. Significant suppression of Ang II-induced changes by subdomains are shown as ^p<0.05, […], and ^^^p<0.001 for Ang II+Veh vs Ang II+CSD subdomains.
Young mice (3 months old) infused with Ang II or vehicle for two weeks received daily i.p. injections of W82-89. IgG heavy chain (IgGH) leakage and Col I accumulation are shown in Western blots. The actin loading control is present twice because IgGH was analyzed in the supernatant fraction of heart homogenate while Col I is found in the pellet fraction. In the quantitation (n=4), significant changes are shown as **p<0.01 and ***p<0.001 for Sham+Veh vs Ang II+Veh and ^^p<0.01 and ^^^p<0.001 for reversal of AngII-induced changes by W82-89.
In general terms: In western blotting, separated proteins are transferred to a membrane and probed.

The test system of test [1] is bleomycin-treated mice. Briefly: Bleomycin-induced lung and skin fibrosis, treatments delivered by pump. Particulars: for bleomycin-induced lung fibrosis (Ashcroft score): treatment by pump over two weeks after one week bleomycin, n=6. It counts as in vivo. As for the experimental part:
Experiments were conducted to examine the effect of unmodified CSD subdomains on lung and skin fibrosis. […] Pumps containing bleomycin or saline vehicle were implanted subcutaneously into mice. After one week, the pumps had emptied and were replaced with pumps designed to empty over two weeks containing the indicated treatments (n=6 per group). After these two weeks, the mice were sacrificed.
Skin in the vicinity of the pump outlet was harvested for measurement of the thickness of the dermis and the intradermal fat. ^^^p<0.001 for Saline/Vehicle vs Bleo/Vehicle. ***p<0.001, **p<0.01, *p<0.05 for Bleo/Vehicle vs Bleo/Peptide Treatments.

For test [2], the system named is bleomycin-treated mice. Briefly: Bleomycin-induced lung and skin fibrosis, daily i.p. WCSD. Format: in vivo. Here is the method: Pumps containing bleomycin or saline vehicle were implanted subcutaneously into mice. After one week, the pumps had emptied. In addition, mice were injected i.p. daily as indicated, then sacrificed on day 22. All groups contained 4 mice.
Fibrocytes (CD45+/Col I+ cells) were quantified by Flow Cytometry. ECM proteins (Col I, Tenascin C), myofibroblast markers (HSP47, ASMA), and microvascular leakage (IgG Heavy Chain that remained in the tissue after perfusion) were quantified by Western blotting (n=4). Western blot data were quantified densitometrically following normalization to an actin loading control. The value in Saline treated mice was set to 1.0 Arbitrary Unit. ^^p<0.01, ^p<0.05 for Saline/Vehicle vs Bleo/Vehicle; *p<0.05 for Bleo/Vehicle vs Bleo/WCSD.

The target of a further test is PDGFRβ (Homo sapiens, UniProt P09619). Briefly: Inhibition of purified kinases. To be noted: purified kinase.
Chain of PDGFRβ (P09619 33-1106, species assumed): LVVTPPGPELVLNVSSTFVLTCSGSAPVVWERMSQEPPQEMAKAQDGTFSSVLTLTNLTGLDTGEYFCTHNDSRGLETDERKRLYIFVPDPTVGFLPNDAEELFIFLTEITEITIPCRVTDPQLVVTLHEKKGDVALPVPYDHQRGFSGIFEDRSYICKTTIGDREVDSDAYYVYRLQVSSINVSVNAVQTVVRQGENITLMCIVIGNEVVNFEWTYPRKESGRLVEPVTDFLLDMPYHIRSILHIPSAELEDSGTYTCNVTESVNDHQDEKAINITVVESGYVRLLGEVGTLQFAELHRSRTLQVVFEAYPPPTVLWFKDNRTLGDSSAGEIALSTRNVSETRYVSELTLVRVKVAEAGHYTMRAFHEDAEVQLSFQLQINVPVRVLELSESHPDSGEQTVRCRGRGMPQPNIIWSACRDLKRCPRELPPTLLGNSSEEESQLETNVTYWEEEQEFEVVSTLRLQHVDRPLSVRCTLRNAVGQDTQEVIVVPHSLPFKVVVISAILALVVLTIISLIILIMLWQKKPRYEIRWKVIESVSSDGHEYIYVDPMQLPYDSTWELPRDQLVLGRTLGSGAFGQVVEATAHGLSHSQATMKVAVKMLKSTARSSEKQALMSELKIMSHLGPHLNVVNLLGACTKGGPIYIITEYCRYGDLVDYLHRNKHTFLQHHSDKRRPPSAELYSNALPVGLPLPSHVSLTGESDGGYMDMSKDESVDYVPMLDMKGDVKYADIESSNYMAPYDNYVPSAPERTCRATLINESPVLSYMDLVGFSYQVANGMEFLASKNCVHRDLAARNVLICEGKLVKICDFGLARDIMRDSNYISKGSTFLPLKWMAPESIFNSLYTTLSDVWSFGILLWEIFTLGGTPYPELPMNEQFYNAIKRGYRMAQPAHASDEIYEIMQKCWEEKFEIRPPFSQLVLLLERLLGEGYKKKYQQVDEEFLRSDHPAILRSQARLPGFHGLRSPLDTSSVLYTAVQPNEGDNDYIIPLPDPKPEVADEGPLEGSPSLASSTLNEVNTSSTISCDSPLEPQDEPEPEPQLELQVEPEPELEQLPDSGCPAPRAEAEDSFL
The next test concerns the target PKCα (Homo sapiens, UniProt P17252). Briefly: Inhibition of purified kinases. Format: biochemical. To be noted: purified kinase.
Another test deals with VEGFR2 (Homo sapiens, UniProt P35968). The experiment in a line: Inhibition of purified kinases. It counts as biochemical. Particulars: purified kinase; nintedanib worked at much lower concentrations.
Chain of VEGFR2 (P35968 20-1356, species assumed): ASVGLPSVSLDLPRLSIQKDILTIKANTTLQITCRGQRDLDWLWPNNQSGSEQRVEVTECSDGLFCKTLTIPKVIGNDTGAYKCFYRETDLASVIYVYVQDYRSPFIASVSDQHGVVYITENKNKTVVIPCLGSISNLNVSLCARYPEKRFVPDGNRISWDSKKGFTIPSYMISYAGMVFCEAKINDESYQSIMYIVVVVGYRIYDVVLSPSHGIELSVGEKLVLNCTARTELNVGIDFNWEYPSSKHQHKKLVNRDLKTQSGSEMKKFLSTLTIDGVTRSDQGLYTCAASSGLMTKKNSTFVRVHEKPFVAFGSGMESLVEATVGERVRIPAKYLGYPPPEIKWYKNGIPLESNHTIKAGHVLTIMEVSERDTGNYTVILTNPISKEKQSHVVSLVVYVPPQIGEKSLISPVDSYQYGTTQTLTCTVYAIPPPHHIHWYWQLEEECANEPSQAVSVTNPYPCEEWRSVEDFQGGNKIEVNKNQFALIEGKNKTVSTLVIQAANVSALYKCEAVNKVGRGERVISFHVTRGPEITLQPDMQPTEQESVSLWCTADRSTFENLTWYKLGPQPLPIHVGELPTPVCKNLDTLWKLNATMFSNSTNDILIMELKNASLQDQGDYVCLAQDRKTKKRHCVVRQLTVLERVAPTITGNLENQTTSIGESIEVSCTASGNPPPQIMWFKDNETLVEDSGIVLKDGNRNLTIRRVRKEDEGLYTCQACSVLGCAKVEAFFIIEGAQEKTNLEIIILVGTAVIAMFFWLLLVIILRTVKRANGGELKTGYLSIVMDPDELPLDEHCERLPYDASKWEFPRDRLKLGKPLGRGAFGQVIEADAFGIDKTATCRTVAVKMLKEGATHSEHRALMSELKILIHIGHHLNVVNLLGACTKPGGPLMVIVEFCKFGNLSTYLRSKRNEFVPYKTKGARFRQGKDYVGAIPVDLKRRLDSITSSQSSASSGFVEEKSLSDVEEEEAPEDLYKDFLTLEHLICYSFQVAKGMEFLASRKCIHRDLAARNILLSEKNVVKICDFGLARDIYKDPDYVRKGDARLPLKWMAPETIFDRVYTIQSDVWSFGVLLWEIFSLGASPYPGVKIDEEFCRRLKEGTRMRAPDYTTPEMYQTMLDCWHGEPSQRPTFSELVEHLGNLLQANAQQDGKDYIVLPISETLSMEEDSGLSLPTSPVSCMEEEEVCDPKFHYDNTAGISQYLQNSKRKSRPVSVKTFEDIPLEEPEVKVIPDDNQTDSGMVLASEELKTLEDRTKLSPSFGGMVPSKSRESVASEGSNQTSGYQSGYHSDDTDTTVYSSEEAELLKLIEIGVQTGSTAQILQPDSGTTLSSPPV
The next test addresses T1, PKCε (Homo sapiens, UniProt Q02156).
T1 sequence (Q02156 1-737): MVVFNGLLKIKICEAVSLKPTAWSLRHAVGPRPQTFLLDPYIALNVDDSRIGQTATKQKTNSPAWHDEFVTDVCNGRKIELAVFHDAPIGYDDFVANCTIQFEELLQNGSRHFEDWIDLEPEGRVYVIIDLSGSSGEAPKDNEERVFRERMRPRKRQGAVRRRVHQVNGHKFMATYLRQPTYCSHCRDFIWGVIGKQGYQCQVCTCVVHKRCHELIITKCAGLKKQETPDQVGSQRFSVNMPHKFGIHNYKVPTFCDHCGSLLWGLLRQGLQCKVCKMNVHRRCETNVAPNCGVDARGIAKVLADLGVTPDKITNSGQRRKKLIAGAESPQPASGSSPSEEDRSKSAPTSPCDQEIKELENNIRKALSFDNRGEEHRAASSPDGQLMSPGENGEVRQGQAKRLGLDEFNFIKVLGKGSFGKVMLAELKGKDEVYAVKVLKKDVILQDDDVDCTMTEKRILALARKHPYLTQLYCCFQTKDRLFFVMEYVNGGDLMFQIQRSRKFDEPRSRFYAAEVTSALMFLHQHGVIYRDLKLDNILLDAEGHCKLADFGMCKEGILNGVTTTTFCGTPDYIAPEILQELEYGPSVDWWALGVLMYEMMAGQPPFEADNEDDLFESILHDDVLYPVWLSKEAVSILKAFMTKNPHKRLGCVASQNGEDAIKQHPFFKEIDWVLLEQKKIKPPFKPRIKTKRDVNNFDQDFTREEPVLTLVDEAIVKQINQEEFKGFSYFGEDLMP
Briefly: Inhibition of purified kinases. It counts as biochemical. Particulars: purified kinase.

The target in a further test is cMet (Homo sapiens, UniProt P08581). Briefly: Inhibition of purified kinases. Format: biochemical. To be noted: purified kinase.
Chain of cMet (P08581 25-1390): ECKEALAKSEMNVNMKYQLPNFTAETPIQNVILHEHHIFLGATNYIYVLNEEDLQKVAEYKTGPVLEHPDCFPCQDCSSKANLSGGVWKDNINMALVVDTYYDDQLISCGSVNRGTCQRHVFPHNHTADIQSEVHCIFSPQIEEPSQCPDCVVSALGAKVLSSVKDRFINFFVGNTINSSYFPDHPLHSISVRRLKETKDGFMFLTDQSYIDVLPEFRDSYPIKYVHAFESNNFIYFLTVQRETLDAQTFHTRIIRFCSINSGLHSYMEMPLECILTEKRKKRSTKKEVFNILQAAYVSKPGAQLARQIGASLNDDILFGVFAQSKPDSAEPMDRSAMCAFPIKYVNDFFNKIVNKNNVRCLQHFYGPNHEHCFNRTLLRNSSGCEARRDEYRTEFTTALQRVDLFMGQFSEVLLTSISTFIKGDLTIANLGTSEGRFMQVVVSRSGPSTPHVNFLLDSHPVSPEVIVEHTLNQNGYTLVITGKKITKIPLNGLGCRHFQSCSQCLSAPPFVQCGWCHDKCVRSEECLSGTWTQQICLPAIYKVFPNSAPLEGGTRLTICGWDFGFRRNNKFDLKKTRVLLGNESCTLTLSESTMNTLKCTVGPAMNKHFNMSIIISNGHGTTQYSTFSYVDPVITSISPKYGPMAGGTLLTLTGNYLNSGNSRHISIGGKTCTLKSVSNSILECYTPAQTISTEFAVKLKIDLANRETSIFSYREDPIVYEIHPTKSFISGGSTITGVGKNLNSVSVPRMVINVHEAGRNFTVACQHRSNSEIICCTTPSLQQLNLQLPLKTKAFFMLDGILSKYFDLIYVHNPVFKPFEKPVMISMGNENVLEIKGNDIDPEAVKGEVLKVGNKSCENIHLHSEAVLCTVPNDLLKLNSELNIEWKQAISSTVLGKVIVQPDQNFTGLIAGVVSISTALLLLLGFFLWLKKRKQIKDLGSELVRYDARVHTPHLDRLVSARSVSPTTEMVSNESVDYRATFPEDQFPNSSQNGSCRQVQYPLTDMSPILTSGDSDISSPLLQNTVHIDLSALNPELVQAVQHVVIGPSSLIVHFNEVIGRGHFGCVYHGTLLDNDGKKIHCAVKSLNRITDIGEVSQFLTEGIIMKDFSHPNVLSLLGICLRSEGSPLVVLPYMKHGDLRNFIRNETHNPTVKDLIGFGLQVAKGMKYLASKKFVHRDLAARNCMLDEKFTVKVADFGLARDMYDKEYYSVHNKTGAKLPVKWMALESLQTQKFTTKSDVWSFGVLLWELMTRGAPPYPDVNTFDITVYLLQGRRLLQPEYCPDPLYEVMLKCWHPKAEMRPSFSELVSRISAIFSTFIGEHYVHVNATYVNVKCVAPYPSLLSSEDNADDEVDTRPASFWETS
The target in the next test is PDGFRα (Homo sapiens, UniProt P16234). Briefly: Inhibition of purified kinases. To be noted: purified kinase.
The target of the next test is Src (Homo sapiens, UniProt P12931). Briefly: Inhibition of purified kinases. It counts as biochemical. To be noted: purified kinase; nintedanib worked at much lower concentrations.
The target of another test is VEGFR1 (Homo sapiens, UniProt P17948). Briefly: Inhibition of purified kinases. It counts as biochemical. Particulars: purified kinase.
A further test concerns the target T2, TGFβR1 (Homo sapiens, UniProt P36897).
T2 sequence (P36897 34-503): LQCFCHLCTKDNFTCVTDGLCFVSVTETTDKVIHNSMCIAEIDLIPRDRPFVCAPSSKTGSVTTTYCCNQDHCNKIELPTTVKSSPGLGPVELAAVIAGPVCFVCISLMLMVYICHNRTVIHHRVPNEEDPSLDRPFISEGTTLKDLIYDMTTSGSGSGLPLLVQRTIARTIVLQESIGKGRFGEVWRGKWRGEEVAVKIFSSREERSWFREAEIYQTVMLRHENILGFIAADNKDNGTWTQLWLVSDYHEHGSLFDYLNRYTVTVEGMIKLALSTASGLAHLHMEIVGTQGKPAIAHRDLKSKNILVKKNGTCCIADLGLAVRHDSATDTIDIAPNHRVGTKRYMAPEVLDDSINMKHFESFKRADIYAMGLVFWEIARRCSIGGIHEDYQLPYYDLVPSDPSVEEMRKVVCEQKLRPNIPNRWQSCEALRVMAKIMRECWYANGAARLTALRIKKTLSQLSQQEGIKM
The experiment in a line: Inhibition of purified kinases. Format: biochemical. To be noted: purified kinase; nintedanib worked at much lower concentrations.

A further test concerns the target VEGFR3 (Homo sapiens, UniProt P35916). The experiment in a line: Inhibition of purified kinases. Particulars: purified kinase. Format: biochemical.
The mark [3] stands for this setting: young mice infused with Ang II two weeks, daily i.p. injections, echocardiography.

Chain of VEGFR3 (P35916 25-1363, species assumed): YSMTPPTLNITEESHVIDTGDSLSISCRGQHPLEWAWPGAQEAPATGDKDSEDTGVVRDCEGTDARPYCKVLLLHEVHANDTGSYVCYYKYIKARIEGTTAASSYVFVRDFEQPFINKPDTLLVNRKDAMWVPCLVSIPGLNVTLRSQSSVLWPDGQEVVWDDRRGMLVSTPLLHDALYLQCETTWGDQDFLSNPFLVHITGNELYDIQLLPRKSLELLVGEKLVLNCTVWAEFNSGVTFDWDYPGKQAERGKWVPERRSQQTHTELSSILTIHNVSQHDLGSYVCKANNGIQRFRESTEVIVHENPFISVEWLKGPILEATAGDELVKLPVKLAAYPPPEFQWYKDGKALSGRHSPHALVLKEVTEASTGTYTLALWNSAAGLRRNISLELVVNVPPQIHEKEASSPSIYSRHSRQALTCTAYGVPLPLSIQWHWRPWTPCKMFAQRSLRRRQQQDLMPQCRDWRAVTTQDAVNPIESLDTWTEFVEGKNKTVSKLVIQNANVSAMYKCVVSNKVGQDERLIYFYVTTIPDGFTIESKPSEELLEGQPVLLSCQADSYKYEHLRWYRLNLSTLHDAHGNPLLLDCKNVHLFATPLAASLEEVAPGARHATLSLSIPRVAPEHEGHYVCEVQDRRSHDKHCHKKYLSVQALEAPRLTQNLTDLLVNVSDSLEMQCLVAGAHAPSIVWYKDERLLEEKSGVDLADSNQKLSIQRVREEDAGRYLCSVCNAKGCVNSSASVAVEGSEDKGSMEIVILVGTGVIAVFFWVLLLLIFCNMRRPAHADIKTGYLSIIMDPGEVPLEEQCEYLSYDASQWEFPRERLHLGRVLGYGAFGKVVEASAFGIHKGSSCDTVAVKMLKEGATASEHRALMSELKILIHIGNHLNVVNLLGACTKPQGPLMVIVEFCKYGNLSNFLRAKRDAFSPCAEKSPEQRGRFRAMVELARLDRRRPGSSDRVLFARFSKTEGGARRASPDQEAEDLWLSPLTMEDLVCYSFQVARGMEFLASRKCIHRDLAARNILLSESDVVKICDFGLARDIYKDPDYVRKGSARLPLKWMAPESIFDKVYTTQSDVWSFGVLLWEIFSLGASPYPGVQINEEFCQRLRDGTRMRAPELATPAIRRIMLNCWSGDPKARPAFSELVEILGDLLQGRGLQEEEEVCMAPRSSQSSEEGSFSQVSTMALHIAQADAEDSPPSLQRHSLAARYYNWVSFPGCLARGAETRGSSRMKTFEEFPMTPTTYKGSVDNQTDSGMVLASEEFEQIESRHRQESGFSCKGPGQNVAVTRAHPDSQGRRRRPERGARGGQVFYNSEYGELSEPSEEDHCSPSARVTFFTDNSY

On to 82-89: CSD subdomain DGIWKASF-NH2, for which, in the test with Ang II-infused mice (daily i.p. injections), the “suppression of AngII-induced fibrosis in the heart (Col I deposition and HSP47 level)” value was “significant beneficial effect”; the “suppression of AngII-induced microvascular leakage in the heart (IgG heavy chain level in the tissue)” value was “almost completely suppressed”; the “suppression of the effects of AngII on Heart Weight/Body Weight (HW/BW) ratio” value is “essentially equally effective as 88-95”. In addition, the “overall effectiveness of domains in the CHF model (summary of FIGS. 1-7)” value in the test with Ang II-infused mice is given as “active”. Further, the “suppression of the effects of AngII on Ejection Fraction (EF), Fractional Shortening (FS), Isovolumic Relaxation Time (IVRT)” value with Ang II-infused mice (setting [3]) is given as “significant beneficial effect”. For the same compound, the “activity across all readouts of the bleomycin model (lung, skin, monocyte migration)” value with bleomycin-treated mice [1] (Example 4 summary) is given as “most active of the subdomains tested”. In addition, in the test with bleomycin-treated mice [1], the “bleomycin-induced lung fibrosis (Ashcroft score)” value (“bleomycin-induced lung fibrosis” for short) is reported as “suppression”.

88-95: CSD subdomain SFTTFTVT-NH2: in the test on Ang II-infused mice (daily i.p. injections), the “suppression of AngII-induced fibrosis in the heart (Col I deposition and HSP47 level)” value is listed as “most effective CSD subdomain”; the “suppression of AngII-induced microvascular leakage in the heart (IgG heavy chain level in the tissue)” value is given as “almost completely suppressed”; the “suppression of the effects of AngII on Heart Weight/Body Weight (HW/BW) ratio” value was “most effective CSD subdomain”. Besides, the “overall effectiveness of domains in the CHF model (summary of FIGS. 1-7)” value in the test with Ang II-infused mice was “most effective Dimethyl sulfoxide (DMSO)-solubilized domain tested”. In the test on Ang II-infused mice (setting [3]), the “suppression of the effects of AngII on Ejection Fraction (EF), Fractional Shortening (FS), Isovolumic Relaxation Time (IVRT)” value is given as “most effective CSD subdomain”; the “suppression of the effects of AngII on Left Ventricle (LV) Mass and Posterior Wall Thickness (pWTh)” value is given as “most effective CSD subdomain”. Besides, the “bleomycin-induced lung fibrosis” value with bleomycin-treated mice [1] is “suppression”.

Regarding 94-101: CSD subdomain VTKYWFYR-NH2, the “bleomycin-induced lung fibrosis” value in the test with bleomycin-treated mice [1] is “suppression”.

Take `CC[C@H](C)[C@H](NC(=O)CNC(=O)[C@H](CC(=O)O)NC(=O)[C@@H](CCCCN)NC(=O)[C@@H](CCCCN)NC(C)=O)C(=O)N[C@@H](Cc1c[nH]c2ccccc12)C(=O)N[C@@H](CCCCN)C(=O)N[C@@H](C)C(=O)N[C@@H](CO)C(=O)N[C@@H](Cc1ccccc1)C(=O)N[C@H](C(=O)N[C@H](C(=O)N[C@@H](Cc1ccccc1)C(=O)N[C@H](C(=O)N[C@H](C(=O)N[C@H](C(=O)N[C@@H](CCCCN)C(=O)N[C@@H](Cc1ccc(O)cc1)C(=O)N[C@@H](Cc1c[nH]c2ccccc12)C(=O)N[C@@H](Cc1ccccc1)C(=O)N[C@@H](Cc1ccc(O)cc1)C(=O)N[C@@H](CCCNC(=N)N)C(=O)N[C@H](CCCCN)C(=O)N[C@H](CCCCN)C(N)=O)[C@@H](C)O)C(C)C)[C@@H](C)O)[C@@H](C)O)[C@@H](C)O` [WCSD] (Ac-[dK][dK]DGIWKASFTTFTVTKYWFYR[dK][dK]-NH2): the “fibrocytes (CD45+/Col I+ cells) in lung” value in the test with bleomycin-treated mice [2] (Flow Cytometry) was “almost completely suppressed by WCSD down to the levels in control, saline-treated mice”. For the same compound, the “bleomycin-induced loss of the transdermal adipose layer in the skin” value in the test on bleomycin-treated mice [2] (WCSD treatment beginning on day 8) was “suppresses the almost complete loss of the transdermal adipose layer”. Further, in the test on bleomycin-treated mice [2] (Western blotting, n=4), the “ECM proteins (Col I, Tenascin C) in lung” value was “almost completely suppressed by WCSD down to the levels in control, saline-treated mice”; the “microvascular leakage (IgG Heavy Chain remaining in the tissue after perfusion) in lung” value is on record as “almost completely suppressed by WCSD down to the levels in control, saline-treated mice”; the “myofibroblast markers (HSP47, ASMA) in lung” value was “almost completely suppressed by WCSD down to the levels in control, saline-treated mice”. The survival result in the test on bleomycin-treated mice [2] (bleomycin pump, daily i.p. WCSD) is “outstanding beneficial effect on survival”. In the test with bleomycin-treated mice [2] (bleomycin, treatment also delayed until day 8), the “lung fibrosis and inflammatory cell infiltration (histology)” value is listed as “suppressed by WCSD even when treatment is delayed until day 8”.

With `COC(=O)c1ccc2c(c1)NC(=O)/C2=C(\Nc1ccc(N(C)C(=O)CN2CCN(C)CC2)cc1)c1ccccc1` [nintedanib], on PDGFRβ, the “inhibition of PDGFRβ” value is on record as “inhibits”. On PKCα, the “inhibition of PKCα” value is given as “has no effect”. For the same compound, the “inhibition of VEGFR2” value against VEGFR2 is on record as “inhibit”. In addition, the “inhibition of PKCε” value at PKCε was “has no effect”. Moreover, the “inhibition of cMet” value at cMet is “has no effect”. The “inhibition of PDGFRα” value against PDGFRα is recorded as “inhibits”. Besides, on Src, the “inhibition of Src” value was “inhibit”. Further, the “inhibition of VEGFR1” value on VEGFR1 is listed as “inhibits”. For the same compound, the “inhibition of TGFβR1” value against TGFβR1 is given as “inhibit”. The “inhibition of VEGFR3” value against VEGFR3 is on record as “inhibits”.
